Experimental findings from patent US12227500B2, “Substituted pyrrolo[2,3-b]pyridines for suppressing toxic endoplasmic reticulum stress” (THE TRUSTEES OF COLUMBIA UNIVERSITY IN THE CITY OF NEW YORK, priority 2018, dated 2025) are described below.

Like-named read-outs stand apart in the source and are kept apart here.

Usually EC50 stands for the midpoint of the concentration-response curve.

The test system of assay [1] is human ES motor neurons carrying the ALS-causing SOD1^A4V mutation. As to the kind of experiment: cells. Type of assay: cell-based. The settings on record: 72 h, 72 h; for EC50 / Emax: CPA 33 μM; for viability at 1 µM: CPA (33 μM) + compound (1 μM), read-out: Motor Neuron Survival, % untreated; for Emax: read-out: Emax (MN survival % untreated). As for the experimental part:
Next, survival assays were performed with all the analogs at once to generate a low-variability dataset. All compounds were evaluated at concentrations ranging from 0.1-3.0 μM (five-point dilution) in three technical replicates and two biological replicates.

For another assay, the target named is T1, MLK1/MAP3K9 (Homo sapiens, UniProt P80192).
T1 construct: purchased Reaction Biology Corp
Description: Radiolabeled ATP kinase assay (Reaction Biology Corp.), MLK1. The format is biochemical. The settings on record: [Cmpd] 0.1 μM, 10 μM ATP. As for the experimental part:
(§1) Meanwhile, the same analogs were analyzed in a radiolabeled ATP assay (10 μM ATP; Reaction Biology Corp.) to compare the extent to which they could inhibit the activity of HGK, MLK1, or MLK3 in a cell-free environment (Table S3 and S4).

Another assay deals with T2, MLK3/MAP3K11 (Homo sapiens, UniProt Q16584).
T2 construct: purchased Reaction Biology Corp
As to the kind of experiment: Radiolabeled ATP kinase assay (Reaction Biology Corp.), MLK3. The format is biochemical. The settings on record: [Cmpd] 0.1 μM; 10 μM ATP. As for the experimental part:
as §1

For the next assay, the target named is HGK/MAP4K4 (Homo sapiens, UniProt O95819). Description: Radiolabeled ATP kinase assay (Reaction Biology Corp.), HGK. Type of assay: biochemical. Further details: purchased Reaction Biology Corp. The settings on record: 10 μM ATP, read-out: % Enzyme Activity (relative to DMSO controls), HGK/MAP4K4, Data 1; for remaining activity at 0.025 µM: [Cmpd] 0.025 μM; for remaining activity at 0.1 µM: [Cmpd] 0.1 μM. How it is done: as §1

Where [2] appears, read: Homo sapiens, Neuron, read-out: EC50.
Where [3] appears, read: read-out: % Enzyme Activity Remaining (relative to DMSO controls), MLK1/MAP3K9, Data 1.
[4] abbreviates: read-out: % Enzyme Activity Remaining (relative to DMSO controls), MLK1/MAP3K9, Data 2.

T1 sequence (P80192 whole entry): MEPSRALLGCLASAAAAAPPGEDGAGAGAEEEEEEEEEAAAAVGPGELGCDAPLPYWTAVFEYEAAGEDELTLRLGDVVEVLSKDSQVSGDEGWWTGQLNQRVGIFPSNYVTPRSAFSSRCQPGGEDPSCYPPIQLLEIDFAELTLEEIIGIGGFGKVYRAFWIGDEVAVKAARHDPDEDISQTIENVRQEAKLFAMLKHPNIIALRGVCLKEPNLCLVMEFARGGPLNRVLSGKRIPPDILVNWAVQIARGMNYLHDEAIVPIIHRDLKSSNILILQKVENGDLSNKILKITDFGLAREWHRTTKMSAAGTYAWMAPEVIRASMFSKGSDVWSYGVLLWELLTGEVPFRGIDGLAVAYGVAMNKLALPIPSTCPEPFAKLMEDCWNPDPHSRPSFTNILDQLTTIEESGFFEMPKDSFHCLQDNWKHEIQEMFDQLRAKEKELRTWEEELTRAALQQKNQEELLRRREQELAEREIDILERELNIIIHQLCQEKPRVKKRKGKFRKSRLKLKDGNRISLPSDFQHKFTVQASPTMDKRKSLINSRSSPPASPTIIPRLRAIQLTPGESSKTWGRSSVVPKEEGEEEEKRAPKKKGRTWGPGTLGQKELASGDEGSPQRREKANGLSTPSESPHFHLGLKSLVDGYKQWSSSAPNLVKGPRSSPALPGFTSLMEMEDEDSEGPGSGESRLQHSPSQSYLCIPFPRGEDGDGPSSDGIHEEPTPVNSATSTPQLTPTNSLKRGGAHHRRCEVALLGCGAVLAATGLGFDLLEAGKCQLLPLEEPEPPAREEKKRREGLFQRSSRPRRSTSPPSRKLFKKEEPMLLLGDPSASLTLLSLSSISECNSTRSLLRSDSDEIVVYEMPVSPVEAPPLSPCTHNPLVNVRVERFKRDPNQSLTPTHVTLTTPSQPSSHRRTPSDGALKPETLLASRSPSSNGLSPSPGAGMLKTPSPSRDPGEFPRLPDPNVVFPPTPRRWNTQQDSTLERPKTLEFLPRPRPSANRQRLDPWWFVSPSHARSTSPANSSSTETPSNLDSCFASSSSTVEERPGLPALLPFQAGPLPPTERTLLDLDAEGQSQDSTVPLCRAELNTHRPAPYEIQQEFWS
T2 sequence (Q16584 whole entry): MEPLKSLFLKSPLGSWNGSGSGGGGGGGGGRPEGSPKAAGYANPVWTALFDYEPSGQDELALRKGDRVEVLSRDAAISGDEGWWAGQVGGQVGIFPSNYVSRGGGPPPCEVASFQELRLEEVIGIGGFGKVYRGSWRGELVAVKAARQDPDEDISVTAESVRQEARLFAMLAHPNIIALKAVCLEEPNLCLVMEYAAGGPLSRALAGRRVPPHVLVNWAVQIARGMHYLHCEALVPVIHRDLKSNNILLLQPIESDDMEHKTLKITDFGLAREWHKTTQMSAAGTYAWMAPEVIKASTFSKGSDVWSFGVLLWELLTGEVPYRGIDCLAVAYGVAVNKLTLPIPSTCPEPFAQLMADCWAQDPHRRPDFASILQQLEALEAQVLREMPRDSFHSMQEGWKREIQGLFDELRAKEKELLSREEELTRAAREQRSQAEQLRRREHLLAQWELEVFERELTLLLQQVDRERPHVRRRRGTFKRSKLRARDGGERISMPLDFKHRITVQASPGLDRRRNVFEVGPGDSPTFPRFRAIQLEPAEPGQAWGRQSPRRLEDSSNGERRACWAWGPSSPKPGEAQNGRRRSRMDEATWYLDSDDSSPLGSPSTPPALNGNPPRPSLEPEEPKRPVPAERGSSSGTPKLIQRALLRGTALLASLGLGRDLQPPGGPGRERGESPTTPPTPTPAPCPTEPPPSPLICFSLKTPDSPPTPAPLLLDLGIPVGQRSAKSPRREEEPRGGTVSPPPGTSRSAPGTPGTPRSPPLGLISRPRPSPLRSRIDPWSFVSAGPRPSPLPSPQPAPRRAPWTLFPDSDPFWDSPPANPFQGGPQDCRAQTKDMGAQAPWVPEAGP
Chain of HGK/MAP4K4 (O95819 whole entry): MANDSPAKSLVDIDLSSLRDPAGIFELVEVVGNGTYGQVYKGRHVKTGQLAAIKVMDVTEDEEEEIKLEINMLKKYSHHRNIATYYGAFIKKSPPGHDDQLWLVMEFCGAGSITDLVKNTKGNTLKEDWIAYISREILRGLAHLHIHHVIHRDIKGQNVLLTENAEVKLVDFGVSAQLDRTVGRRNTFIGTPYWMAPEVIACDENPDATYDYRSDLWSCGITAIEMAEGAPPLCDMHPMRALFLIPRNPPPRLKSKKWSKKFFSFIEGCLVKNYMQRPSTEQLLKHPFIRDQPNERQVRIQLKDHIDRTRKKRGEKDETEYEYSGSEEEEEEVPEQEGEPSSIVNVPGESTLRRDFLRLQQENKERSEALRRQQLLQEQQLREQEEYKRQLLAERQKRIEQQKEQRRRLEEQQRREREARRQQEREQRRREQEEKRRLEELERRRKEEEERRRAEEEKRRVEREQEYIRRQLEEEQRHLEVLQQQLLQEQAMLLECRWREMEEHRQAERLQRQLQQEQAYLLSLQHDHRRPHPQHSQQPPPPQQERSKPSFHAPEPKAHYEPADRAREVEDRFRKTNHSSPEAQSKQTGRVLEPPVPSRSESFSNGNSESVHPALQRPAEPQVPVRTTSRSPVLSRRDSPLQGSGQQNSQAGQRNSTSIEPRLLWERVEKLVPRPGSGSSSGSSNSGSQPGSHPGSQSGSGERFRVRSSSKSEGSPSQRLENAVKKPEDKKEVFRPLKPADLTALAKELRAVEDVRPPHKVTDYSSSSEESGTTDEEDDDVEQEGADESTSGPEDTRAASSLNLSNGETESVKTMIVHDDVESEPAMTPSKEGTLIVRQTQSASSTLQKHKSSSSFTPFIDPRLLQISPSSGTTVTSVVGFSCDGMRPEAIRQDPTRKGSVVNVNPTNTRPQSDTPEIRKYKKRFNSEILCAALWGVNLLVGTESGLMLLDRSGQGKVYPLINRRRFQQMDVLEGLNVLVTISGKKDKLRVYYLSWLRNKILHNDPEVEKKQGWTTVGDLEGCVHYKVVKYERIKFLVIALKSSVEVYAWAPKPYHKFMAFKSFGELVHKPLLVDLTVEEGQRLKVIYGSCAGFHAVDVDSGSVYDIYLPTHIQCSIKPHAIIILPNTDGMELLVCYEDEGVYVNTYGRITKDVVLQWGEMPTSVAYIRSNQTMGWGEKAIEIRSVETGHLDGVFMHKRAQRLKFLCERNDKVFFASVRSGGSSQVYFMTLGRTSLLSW

For `CN1CCN(Cc2ccc(-c3cnc4[nH]cc(-c5cnc(N)nc5)c4c3)cc2)CC1` [Compound 7k, 5-(5-(4-((4-Methylpiperazin-1-yl)methyl)phenyl)-1H-pyrrolo[2,3-b]pyridin-3-yl)pyrimidin-2-amine], in assay [1] (setting [2]), the EC50 amounted to 316 nM. In assay [1] (Homo sapiens, Neuron), the viability at 1 µM worked out at 71% and the Emax was 71%. Also, at MLK1/MAP3K9 (setting [3]), the remaining activity at 0.1 µM came to 69%. Besides, the remaining activity at 0.1 µM at MLK1/MAP3K9 (setting [4]) turned out to be 70.8%. Moreover, at MLK3/MAP3K11, the “% Enzyme Activity Remaining (relative to DMSO controls), MLK3/MAP3K11, Data 1” value was 71.64% and the “% Enzyme Activity Remaining (relative to DMSO controls), MLK3/MAP3K11, Data 2” value was determined as 75.32%. Also, on HGK/MAP4K4, the remaining activity at 0.025 µM is 48.3% and the remaining activity at 0.1 µM stood at 16.5%.
For `Cc1cc(-c2c[nH]c3ncc(-c4ccc(CN5CCN(C)CC5)cc4)cc23)cnc1N` [Compound 7l, 3-Methyl-5-(5-(4-((4-methylpiperazin-1-yl)methyl)phenyl)-1H-pyrrolo[2,3-b]pyridin-3-yl)pyridin-2-amine], in assay [1] (setting [2]), the EC50 was determined as 177 nM. Besides, in assay [1] (Homo sapiens, Neuron), the viability at 1 µM was determined as 106% and the Emax was determined as 106%. Further, the remaining activity at 0.1 µM at MLK1/MAP3K9 (setting [3]) stood at 53.2%. The remaining activity at 0.1 µM on MLK1/MAP3K9 (setting [4]) was determined as 52.4%. Besides, on MLK3/MAP3K11, the “% Enzyme Activity Remaining (relative to DMSO controls), MLK3/MAP3K11, Data 1” value came to 58.50% and the “% Enzyme Activity Remaining (relative to DMSO controls), MLK3/MAP3K11, Data 2” value was 57.04%. Further, on HGK/MAP4K4, the remaining activity at 0.025 µM came out at 27% and the remaining activity at 0.1 µM came out at 5.45%.
For the compound `CN1CCN(Cc2ccc(-c3cnc4[nH]cc(-c5ccc(N)nc5)c4c3)cc2)CC1` [Compound 7m, 5-(5-(4-((4-Methylpiperazin-1-yl)methyl)phenyl)-1H-pyrrolo[2,3-b]pyridin-3-yl)pyridin-2-amine], the EC50 in assay [1] (setting [2]) amounted to 213 nM. In assay [1] (Homo sapiens, Neuron), the viability at 1 µM was found to be 76.1% and the Emax amounted to 76.1%. In addition, the remaining activity at 0.1 µM at MLK1/MAP3K9 (setting [3]) stood at 96.7%. For the same compound, on MLK1/MAP3K9 (setting [4]), the remaining activity at 0.1 µM stood at 96.3%. Further, at MLK3/MAP3K11, the “% Enzyme Activity Remaining (relative to DMSO controls), MLK3/MAP3K11, Data 1” value was found to be 67.62% and the “% Enzyme Activity Remaining (relative to DMSO controls), MLK3/MAP3K11, Data 2” value worked out at 67.85%. On HGK/MAP4K4, the remaining activity at 0.025 µM worked out at 38.4% and the remaining activity at 0.1 µM was 10.8%.
Regarding `CN1CCN(Cc2ccc(-c3cnc4[nH]cc(-c5ccc(C#N)cc5)c4c3)cc2)CC1` [Compound 7o, 4-(5-(4-((4-Methylpiperazin-1-yl)methyl)phenyl)-1H-pyrrolo[2,3-b]pyridin-3-yl)benzonitrile], the EC50 in assay [1] (setting [2]) amounted to 775 nM. Further, in assay [1] (Homo sapiens, Neuron), the viability at 1 µM came out at 49.7% and the Emax was 68.6%. The remaining activity at 0.1 µM on MLK1/MAP3K9 (setting [3]) came out at 93.4%. On MLK1/MAP3K9 (setting [4]), the remaining activity at 0.1 µM came to 90.7%. On MLK3/MAP3K11, the “% Enzyme Activity Remaining (relative to DMSO controls), MLK3/MAP3K11, Data 1” value is recorded as 90.12% and the “% Enzyme Activity Remaining (relative to DMSO controls), MLK3/MAP3K11, Data 2” value was 92.65%. At HGK/MAP4K4, the remaining activity at 0.025 µM came to 58.9% and the remaining activity at 0.1 µM is 29.3%.
Take `CN1CCN(Cc2ccc(-c3cnc4[nH]cc(-c5cccc([N+](=O)[O-])c5)c4c3)cc2)CC1` [Compound 7p, 5-(4-((4-Methylpiperazin-1-yl)methyl)phenyl)-3-(3-nitrophenyl)-1H-pyrrolo[2,3-b]pyridine]: the EC50 in assay [1] (setting [2]) was found to be 293 nM. Further, in assay [1] (Homo sapiens, Neuron), the viability at 1 µM came out at 116% and the Emax was 131%. In addition, the remaining activity at 0.1 µM on MLK1/MAP3K9 (setting [3]) amounted to 62.7%. The remaining activity at 0.1 µM on MLK1/MAP3K9 (setting [4]) came out at 62.9%. In addition, at MLK3/MAP3K11, the “% Enzyme Activity Remaining (relative to DMSO controls), MLK3/MAP3K11, Data 1” value was determined as 40.84% and the “% Enzyme Activity Remaining (relative to DMSO controls), MLK3/MAP3K11, Data 2” value is reported as 42.08%. Also, on HGK/MAP4K4, the remaining activity at 0.025 µM was determined as 3.92% and the remaining activity at 0.1 µM worked out at 1.56%.
For the compound `CN1CCN(Cc2ccc(-c3cnc4[nH]cc(-c5cnn(C)c5)c4c3)cc2)CC1` [Compound 7s, 3-(1-Methyl-1H-pyrazol-4-yl)-5-(4-((4-methylpiperazin-1-yl)methyl)phenyl)-1H-pyrrolo[2,3-b]pyridine], the EC50 in assay [1] (setting [2]) was 2190 nM. Further, in assay [1] (Homo sapiens, Neuron), the viability at 1 µM was 42.9% and the Emax is 100%. Besides, the remaining activity at 0.1 µM on MLK1/MAP3K9 (setting [3]) worked out at 94.8%. For the same compound, the remaining activity at 0.1 µM at MLK1/MAP3K9 (setting [4]) amounted to 94.3%. Further, on MLK3/MAP3K11, the “% Enzyme Activity Remaining (relative to DMSO controls), MLK3/MAP3K11, Data 1” value is 90.97% and the “% Enzyme Activity Remaining (relative to DMSO controls), MLK3/MAP3K11, Data 2” value was 90.45%. Moreover, on HGK/MAP4K4, the remaining activity at 0.025 µM amounted to 77.8% and the remaining activity at 0.1 µM was found to be 37%.
As to `CN1CCN(Cc2ccc(-c3cnc4[nH]cc(-c5ccc(CN6CCOCC6)s5)c4c3)cc2)CC1` [Compound 7t, 4-((5-(5-(4-((4-Methylpiperazin-1-yl)methyl)phenyl)-1H-pyrrolo[2,3-b]pyridin-3-yl)thiophen-2-yl)methyl)morpholine], the EC50 in assay [1] (setting [2]) was 1380 nM. In addition, in assay [1] (Homo sapiens, Neuron), the viability at 1 µM was 43.6% and the Emax was determined as 77.3%. Further, the remaining activity at 0.1 µM on MLK1/MAP3K9 (setting [3]) worked out at 82.1%. Moreover, on MLK1/MAP3K9 (setting [4]), the remaining activity at 0.1 µM is 80%. In addition, on MLK3/MAP3K11, the “% Enzyme Activity Remaining (relative to DMSO controls), MLK3/MAP3K11, Data 1” value amounted to 83.49% and the “% Enzyme Activity Remaining (relative to DMSO controls), MLK3/MAP3K11, Data 2” value is on record as 78.30%. Further, on HGK/MAP4K4, the remaining activity at 0.025 µM is 74.3% and the remaining activity at 0.1 µM stood at 33.4%.
Take `CN1CCN(Cc2ccc(-c3cnc4[nH]cc(-c5ccc(S(C)(=O)=O)nc5)c4c3)cc2)CC1` [Compound 7u, 5-(4-((4-Methylpiperazin-1-yl)methyl)phenyl)-3-(6-(methylsulfonyl)pyridin-3-yl)-1H-pyrrolo[2,3-b]pyridine]: in assay [1] (setting [2]), the EC50 was determined as 4600 nM. In assay [1] (Homo sapiens, Neuron), the viability at 1 µM amounted to 33% and the Emax was 72.9%. The remaining activity at 0.1 µM at MLK1/MAP3K9 (setting [3]) came out at 93.9%. Moreover, the remaining activity at 0.1 µM at MLK1/MAP3K9 (setting [4]) is 95.9%. At MLK3/MAP3K11, the “% Enzyme Activity Remaining (relative to DMSO controls), MLK3/MAP3K11, Data 1” value came to 92.02% and the “% Enzyme Activity Remaining (relative to DMSO controls), MLK3/MAP3K11, Data 2” value is listed as 90.70%. For the same compound, on HGK/MAP4K4, the remaining activity at 0.025 µM came out at 92.9% and the remaining activity at 0.1 µM amounted to 52.3%.
`CN1CCN(Cc2ccc(-c3cnc4[nH]cc(-c5ccc6[nH]ncc6c5)c4c3)cc2)CC1` [Compound 7v, 5-(5-(4-((4-Methylpiperazin-1-yl)methyl)phenyl)-1H-pyrrolo[2,3-b]pyridin-3-yl)-1H-indazole]: the EC50 in assay [1] (setting [2]) turned out to be 143 nM. Further, in assay [1] (Homo sapiens, Neuron), the viability at 1 µM was determined as 115% and the Emax stood at 128%. Further, on MLK1/MAP3K9 (setting [3]), the remaining activity at 0.1 µM was 43%. Also, the remaining activity at 0.1 µM on MLK1/MAP3K9 (setting [4]) was found to be 44%. For the same compound, at MLK3/MAP3K11, the “% Enzyme Activity Remaining (relative to DMSO controls), MLK3/MAP3K11, Data 1” value worked out at 33.57% and the “% Enzyme Activity Remaining (relative to DMSO controls), MLK3/MAP3K11, Data 2” value came to 32.45%. On HGK/MAP4K4, the remaining activity at 0.025 µM was found to be 13.8% and the remaining activity at 0.1 µM was found to be 2.9%.
For `CC(=O)c1ccc(-c2c[nH]c3ncc(-c4ccc(CN5CCN(C)CC5)cc4)cc23)cc1` [Compound 7x, 1-(4-(5-(4-((4-Methylpiperazin-1-yl)methyl)phenyl)-1H-pyrrolo[2,3-b]pyridin-3-yl)phenyl)ethan-1-one], the EC50 in assay [1] (setting [2]) worked out at 322 nM. Besides, in assay [1] (Homo sapiens, Neuron), the viability at 1 µM came to 78.1% and the Emax is 78.1%. Besides, the remaining activity at 0.1 µM at MLK1/MAP3K9 (setting [3]) is 65.8%. Besides, the remaining activity at 0.1 µM at MLK1/MAP3K9 (setting [4]) was found to be 67.7%. Further, on MLK3/MAP3K11, the “% Enzyme Activity Remaining (relative to DMSO controls), MLK3/MAP3K11, Data 1” value came to 67.84% and the “% Enzyme Activity Remaining (relative to DMSO controls), MLK3/MAP3K11, Data 2” value was found to be 65.08%. Further, at HGK/MAP4K4, the remaining activity at 0.025 µM was 30.8% and the remaining activity at 0.1 µM amounted to 7.1%.
Take `CN1CCN(Cc2ccc(-c3cnc4[nH]cc(-c5ccc(OC(F)(F)F)cc5)c4c3)cc2)CC1` [Compound 7z, 5-(4-((4-Methylpiperazin-1-yl)methyl)phenyl)-3-(4-(trifluoromethoxy)phenyl)-1H-pyrrolo[2,3-b]pyridine]: in assay [1], the EC50 result is listed as “Ambiguous”. In assay [1] (Homo sapiens, Neuron), the viability at 1 µM is 11.2% and the Emax is 12.8%. Further, the remaining activity at 0.1 µM on MLK1/MAP3K9 (setting [3]) was 98.6%. Moreover, the remaining activity at 0.1 µM on MLK1/MAP3K9 (setting [4]) was determined as 99.2%. For the same compound, on MLK3/MAP3K11, the “% Enzyme Activity Remaining (relative to DMSO controls), MLK3/MAP3K11, Data 1” value was 93.59% and the “% Enzyme Activity Remaining (relative to DMSO controls), MLK3/MAP3K11, Data 2” value was found to be 94.16%. Moreover, on HGK/MAP4K4, the remaining activity at 0.025 µM was determined as 96.4% and the remaining activity at 0.1 µM was 67.9%.
